Among the test systems are A498; A549; CAKI-1; COLO 205; DU-145; EKVX; HCT-15; HOP-62; K562; KM12; Malme-3M; NCI-H226; NCI-H460; RPMI-8226; SF-295; SR; UACC-257; UACC-62; HOP-92; OVCAR-4.
Assay in all cases: DTP human tumour cell line panel, 48 h

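Five compound concentrations were applied to cells in 96-well plates for 48 hours; endpoints were derived by simple linear interpolation of the resulting dose-response curve. GI50 marks 50% less growth.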 The source made the active and inactive calls. Cut-off read from the data, not from the text of the source: active = GI50 up to about 1.1 µM and inactive = higher.

With `Cc1cc(Oc2cnc(=O)[nH]c2)cs1`, the GI50 in the test with A498, with A549, in the test with CAKI-1, in the test with COLO 205, with DU-145 and in the test on EKVX was > 100 µM (inactive) throughout. In addition, the concentration for 50% growth inhibition (GI50) (usually the concentration at which growth is held to half of that of the control) in the test with HCT-15 is above 100 µM; in the test with HOP-62, > 100 µM (inactive); with K562 it was > 100 µM (inactive); with KM12 it was > 100 µM (inactive); in the test with Malme-3M, > 100 µM (inactive); in the test with NCI-H226, > 100 µM (inactive). Also, the GI50 in the test with NCI-H460, with RPMI-8226, in the test with SF-295, in the test on SR, in the test on UACC-257 and in the test on UACC-62 was > 100 µM (inactive) in each case.

Turning to `CNC(=S)N/N=C(\C)c1cc(OC)c(OC)cc1O`, the GI50 with A498, in the test on A549, in the test with CAKI-1, in the test with COLO 205, with DU-145 and in the test on EKVX was > 100 µM (inactive) throughout. In addition, the 50% growth inhibitory concentration (GI50) with HCT-15 is above 100 µM; in the test on HOP-62, > 100 µM (inactive); with K562, 7.29 µM (inactive); in the test with KM12 it was > 100 µM (inactive); with Malme-3M it was > 100 µM (inactive); in the test with NCI-H460 it was > 100 µM (inactive). Moreover, the GI50 in the test with RPMI-8226, in the test with SR, in the test on UACC-257 and in the test with UACC-62 was > 100 µM (inactive) in each case.

As to `O=C(Nc1sccc1S(=O)(=O)c1ccccc1)c1cccnc1`, the GI50 in the test with A549 was 11.5 µM (inactive); in the test with CAKI-1, > 32.7 µM (inactive); with COLO 205, 3.88 µM (inactive); with DU-145, 39.2 µM (inactive); in the test with EKVX, 48.9 µM (inactive); in the test on HCT-15 it was 5.18 µM. Moreover, the GI50 with HOP-62 is 21.9 µM (inactive); with HOP-92, > 42.4 µM (inactive); with K562, 4.39 µM (inactive); with KM12, 4.62 µM (inactive); in the test on Malme-3M it was 8.59 µM (inactive); in the test with NCI-H226 it was 13.7 µM (inactive). Besides, the GI50 with NCI-H460 is 8.34 µM (inactive); in the test on OVCAR-4, > 100 µM (inactive); in the test with RPMI-8226, 7.52 µM (inactive); with SF-295, 8.63 µM (inactive); in the test on SR, 5.2 µM (inactive); in the test on UACC-257, 37.5 µM (inactive). For the same molecule, the GI50 in the test with UACC-62 is 14 µM (inactive).

As for `CCOC(=O)c1c(CN2CCOCC2)n(Cc2ccccc2)c2c1cc(O)c1nc(C)c(C)nc12`, the GI50 was 22 µM (inactive) with A498; 49 µM (inactive) with A549; 22.1 µM (inactive) with CAKI-1; 40 µM (inactive) in the test on COLO 205; 78.2 µM (inactive) in the test on DU-145; > 100 µM (inactive) with EKVX. The GI50 with HCT-15 was 57 µM; in the test on HOP-62, 21.3 µM (inactive); with K562, 84.9 µM (inactive); in the test on KM12, > 100 µM (inactive); in the test on Malme-3M it was 45.8 µM (inactive); in the test on NCI-H226, 45.5 µM (inactive). Also, the GI50 was 42 µM (inactive) with NCI-H460; 47.8 µM (inactive) with OVCAR-4; 30.3 µM (inactive) in the test on RPMI-8226; 56.5 µM (inactive) in the test on SF-295; 44 µM (inactive) in the test on SR; > 100 µM (inactive) in the test with UACC-257. For the same molecule, in the test with UACC-62, the GI50 is 38.7 µM (inactive).

As for `Cc1ccc(Nc2n[nH]c(=S)s2)cc1`, the GI50 with A498, with A549, in the test on CAKI-1, in the test on COLO 205, with DU-145 and in the test with EKVX was > 100 µM (inactive) each time. Further, the 50% growth inhibitory concentration (GI50) in the test on HCT-15 was above 100 µM; in the test with HOP-62, > 100 µM (inactive); in the test on HOP-92, > 100 µM (inactive); in the test on K562, > 100 µM (inactive); with KM12, 69 µM (inactive); with Malme-3M, > 100 µM (inactive). Further, the GI50 with NCI-H226, with NCI-H460, in the test with RPMI-8226, with SF-295, in the test with SR and in the test on UACC-257 was > 100 µM (inactive) throughout. For the same molecule, in the test with UACC-62, the GI50 is > 100 µM (inactive).

In the case of `CC(=O)Nc1ccc2cc(C)c(O)nc2n1`, the GI50 in the test with A498, in the test with A549, with CAKI-1, with COLO 205, with DU-145 and with EKVX was > 100 µM (inactive) throughout. Further, the GI50 with HCT-15 was above 100 µM; in the test on HOP-92, 54.2 µM (inactive); in the test on K562, > 100 µM (inactive); in the test with KM12, > 100 µM (inactive); with Malme-3M it was > 100 µM (inactive); with NCI-H460, > 100 µM (inactive). Besides, the GI50 in the test with OVCAR-4, in the test on RPMI-8226, in the test with SF-295, with SR, in the test on UACC-257 and in the test on UACC-62 was > 100 µM (inactive) each time.

For `CCCOC(=O)C1C2CCC(O2)C1C(=O)O` (configuration not stated), the GI50 with A498, with A549, with CAKI-1, with COLO 205, in the test with DU-145 and in the test on EKVX was > 100 µM (inactive) each time. Moreover, the GI50 is above 100 µM in the test with HCT-15; > 100 µM (inactive) in the test on HOP-62; > 100 µM (inactive) with K562; > 100 µM (inactive) in the test with KM12; > 100 µM (inactive) in the test on Malme-3M; > 100 µM (inactive) in the test on NCI-H226. Further, the GI50 in the test on OVCAR-4, in the test with RPMI-8226, in the test with SF-295, in the test with SR, with UACC-257 and in the test with UACC-62 was > 100 µM (inactive) in each case.

Consider `COc1ccc2c(C)c(Oc3c(Cl)c(Cl)c(O)c(C#N)c3C#N)oc2c1`, for which the GI50 in the test with A498, with A549, in the test on CAKI-1, in the test with COLO 205, in the test with DU-145 and in the test on EKVX was > 100 µM (inactive) throughout. Besides, the GI50 in the test on HCT-15 is above 100 µM; with HOP-62 it was > 100 µM (inactive); in the test on K562 it was > 100 µM (inactive); in the test on KM12, > 100 µM (inactive); in the test on Malme-3M, > 100 µM (inactive); in the test with NCI-H226, > 100 µM (inactive). Further, the GI50 in the test on NCI-H460, in the test on OVCAR-4, with RPMI-8226, in the test with SF-295, in the test with SR and with UACC-257 was > 100 µM (inactive) throughout. In the test on UACC-62, the GI50 was > 100 µM (inactive).

`N#C/N=C1/c2ccccc2/C(=N/C#N)c2cc(CO)ccc21`: the GI50 in the test on A498 was 23.5 µM (inactive); in the test on A549, 20.9 µM (inactive); with CAKI-1 it was 25.3 µM (inactive); in the test with DU-145, 26 µM (inactive); with EKVX, 27.7 µM (inactive); in the test on HCT-15, 27.2 µM. Besides, the GI50 was 42.6 µM (inactive) in the test on HOP-62; 24.8 µM (inactive) in the test with HOP-92; 23.3 µM (inactive) in the test on K562; 31.8 µM (inactive) in the test with KM12; 37.8 µM (inactive) in the test with NCI-H226; 12.5 µM (inactive) with NCI-H460. The GI50 in the test on OVCAR-4 is 48.1 µM (inactive); in the test on RPMI-8226, 2.95 µM (inactive); with SF-295, 32.6 µM (inactive); in the test with SR it was 17 µM (inactive); in the test with UACC-257 it was 26.6 µM (inactive).

Regarding `CCCSc1ccc2[nH]c(N3C(=O)/C(=C/c4ccco4)N=C3c3ccccc3)cc2c1`, the GI50 was 15.4 µM (inactive) in the test with A498; 25.7 µM (inactive) in the test with A549; 34.7 µM (inactive) with CAKI-1; 10.4 µM (inactive) with COLO 205; > 50 µM (inactive) with DU-145; 16.9 µM (inactive) with EKVX. Also, the 50% growth inhibitory concentration (GI50) in the test on HCT-15 was 19.8 µM; in the test on HOP-62, 40.7 µM (inactive); with HOP-92, > 50 µM (inactive); in the test with K562 it was 15.6 µM (inactive); with KM12, 17.7 µM (inactive); in the test with Malme-3M, > 50 µM (inactive). For the same molecule, the GI50 in the test on NCI-H460 was 18.3 µM (inactive); with RPMI-8226, 16.7 µM (inactive); in the test on SR, 7.26 µM (inactive); in the test on UACC-257, 18.2 µM (inactive); with UACC-62, 23.3 µM (inactive).

`CCCCCCCC(=O)NS(=O)(=O)c1ccccc1`: the GI50 in the test with A498, in the test on A549, with CAKI-1, in the test on COLO 205, with DU-145 and in the test with EKVX was > 100 µM (inactive) in each case. The 50% growth inhibitory concentration (GI50) is above 100 µM in the test on HCT-15; > 100 µM (inactive) in the test with HOP-62; > 100 µM (inactive) in the test with K562; > 100 µM (inactive) in the test with KM12; > 100 µM (inactive) in the test with Malme-3M; > 100 µM (inactive) in the test on NCI-H460. The GI50 with OVCAR-4, in the test on RPMI-8226, in the test with SF-295, in the test with SR and with UACC-62 was > 100 µM (inactive) each time.
